Reference: US11337971B2, “Dopamine D3 receptor selective antagonists/partial agonists and uses thereof” (THE UNITED STATES OF AMERICA, AS REPRESENTED BY THE …, priority 2018, dated 2022)
“Also recorded” adds a separate entry of the source.

How the values were obtained:
[1] = tested on: Male Long-Evans rats; assay: Hot plate test of oxycodone-induced antinociceptive response in rats; type: in vivo, rat; conditions: oxycodone in vehicle pretreated group
Experimental: Nociceptive tests were performed using a hot plate device (Model 39, IITC Life Science Inc., Woodland Hills, Calif., USA). The rat was put inside a transparent cage on the hot plate (52±0.2° C.). When thermal nociceptive signs such as licking, stomping the hind paw, or jumping from the plate appeared, the rat was immediately removed from the cage. […] The cut-off time for the test was 60 s to avoid tissue damage.
These experiments involved 8 groups of rats (n=8-9/group) in 2 series of repeated testing: 4 groups were used to test the effects of compound (±)-29 pretreatment on the time course of antinociception induced by oxycodone at a single dose, and another 4 groups were used to test the effects of compound (±)-29 pretreatment on the antinociception induced by various oxycodone doses. Each rat was first habituated to the testing environment for 1 h, followed by placement on the hot plate without treatment to obtain baseline response latencies. The groups in the time course test received baseline testing. Then, group 1 was pretreated with vehicle, and the other 3 groups were pretreated with a dose of compound (±)-29 (5, 15 or 25 mg/kg, i.p.). Fifteen min following the pretreatment, each rat was challenged with a saline injection (1 ml/kg) and, 30 min later, tested for the second time on the hot plate. On the next day, each group received the same pretreatment as on day 1, but challenged with oxycodone (2 mg/kg, i.p.), and each rat was then tested again at 30-, 60- and 120-min following oxycodone challenge. […] Data were calculated as % of maximum percentage effect (% MPE) using the formula: (treatment value−basal value)/(cutoff value−basal value)×100.
Methods: Compound (±)-29 was administered 15 minutes before saline or oxycodone challenge at 5 mg/kg, 15 mg/kg, and 25 mg/kg. […] The rat was then immediately removed from the hot plate and the time latency was recorded.

[2] = tested on: Male Long-Evans rats; conditions: Rice et al, 2012; cited from earlier work
[3] = tested on: opioid-induced conditioned place preference; conditions: Ashby et al, 2003; cited from earlier work
[4] = tested on: rhesus monkeys; assay: Thermal tail withdrawal model of oxycodone antinociception in rhesus monkeys; type: in vivo, rhesus monkey; conditions: FIG. 6B

## COc1ccc2c3c1O[C@H]1C(=O)CC[C@@]4(O)[C@@H](C2)N(C)CC[C@]314 [Oxycodone, reference compound]
[1]
  % MPE, hot plate: significantly increased % MPE; also recorded: dose-dependently increased MPE %

## N#Cc1ccc2c(c1)CCN(CCC1CCC(NC(=O)c3ccnc4ccccc34)CC1)C2 (stereo not shown) [SB-277011A]
[2]
  CPA induced by naloxone-precipitated withdrawal: significantly blocked CPA induced by naloxone-precipitated withdrawal
[3]
  opioid-induced conditioned place preference: significantly inhibiting opioid-induced conditioned place preference

## O=C1CC[C@@]2(O)[C@H]3Cc4ccc(O)c5c4[C@@]2(CCN3CC2CC2)[C@H]1O5 [naltrexone, reference compound]
[4]
  effect on oxycodone antinociception: deleterious effects on oxycodone antinociception
